Series [1] relates to Pseudomonas aeruginosa No. 12. Nature of the series: In vitro antibacterial activity (MIC), agar dilution method. Type of series: cell-based. The protocol: (§1) *^3 In vitro antibacterial activity
(§2) The minimum inhibitory concentrations (MIC:
(§3) μg/ml) shown in Table 1 were determined according
(§4) to the agar dilution method recommended by Japan
(§5) Society of Chemotherpy (1980)

Series [2] deals with Staphylococcus aureus No. 50774. The series is described as above. Type of series: cell-based. On the procedure:
as §1, §2, §3, §4, §5

Series [3] has as its system Escherichia coli P-5101. The series is described as above. In kind it is cell-based. As to conditions: P5101. On the procedure:
as §1, §2, §3, §4, §5

The subject of series [4] is Pseudomonas aeruginosa No. 12. In words: In vivo efficacy against the systemic infections in mice (Pseudomonas aeruginosa). Details: species or system mice (male ddY). The following applies: Pseudomonas aeruginosa No. 12, intraperitoneal infection; oral, twice, about 5 minutes and 6 hours after infection. On the procedure: (§6) Compounds 1, A and NA were each suspended in a 0.2%
(§7) aqueous solution of sodium carboxymethylcellulose.
(§8) Each of the solutions was orally administered to
(§9) mice infected with each of the test organisms under
(§10) the conditions described below, and the median
(§11) effective dose (ED50) was calculated in accordance
(§12) with the Behrens-Kaerber method [Arch. Exp. Path.
(§13) Experimental conditions:
(§14) Mice: Male mice (ddY) weighing about 20 g
Pseudomonas aeruginosa No. 12
Intraperitoneal infection with about 5 × 10^3
(§15) cells per mouse suspended in trypto-soy
(§16) Twice, about 5 minutes and 6 hours after […]

The subject of series [5] is Staphylococcus aureus No. 50774. Nature of the series: In vivo efficacy against the systemic infections in mice (Staphylococcus aureus). Details: species or system mice (male ddY). As to conditions: 336 h; Staphylococcus aureus No. 50774, intravenous infection; oral, twice, about 5 minutes and 6 hours after infection; observed 14 days. On the procedure: as §6, §7, §8, §9, §10, §11, §12, §13, §14
Staphylococcus aureus No. 50774
Intravenous infection with about 5 × 10^8
cells per mouse suspended in saline
Twice, about 5 minutes and 6 hours after
Staphylococcus aureus No. 50774-for 14 days

Series [6] concerns Escherichia coli P-5101. Nature of the series: In vivo efficacy against the systemic infections in mice (Escherichia coli). Details: species or system mice (male ddY). As to conditions: P5101; Escherichia coli P-5101, intraperitoneal infection; oral, twice, about 5 minutes and 6 hours after infection. The protocol: as §6, §7, §8, §9, §10, §11, §12, §13, §14
Escherichia coli P-5101
Intraperitoneal infection with about 9 × 10^6
as §15, §16

A short description of series [7]: Acute oral toxicity in mice. The following applies: mouse, in vivo, female mice (ddY), deaths counted after 7 days. The protocol:
*^5 Acute oral toxicity in mice
A suspension containing compound 1 in various
concentrations was orally given to female mice
(ddY) at a volume of 0.1 ml per 10 g of body weight.
The number of dead mice was counted after 7 days,
and the value of median lethal dose (LD50) was
calculated in accordance with the Behrens-Kaerber

This passage reports MIC, ED50 and LD50 results from patent US4497816A, “7-(4-Pyridyl)-1,8-naphthyridine derivatives and their antibacterial compositions” (Dainippon Pharmaceutical Co., Ltd., priority 1982, dated 1985).

In brackets after ≈: the same amount, converted by molar mass.

For `CCn1cc(C(=O)O)c(=O)c2ccc(C)nc21` [NA, 1-ethyl-1,4-dihydro-7-methyl-4-oxo-1,8-naphthyridine-3-carboxylic acid], the MIC in series [1] is 200 µg/mL (≈ 861 µM); in series [2], 50 µg/mL (≈ 215 µM); against Escherichia coli P-5101 [3], 3.13 µg/mL (≈ 13.5 µM). Further, the median effective dose (ED50) in series [4] was 267 mg/kg; in series [5], 767 mg/kg.
In the case of `CCn1cc(C(=O)O)c(=O)c2cc(F)c(-c3ccncc3)nc21` [Compound 1, 1-Ethyl-6-fluoro-1,4-dihydro-4-oxo-7-(4-pyridyl)-1,8-naphthyridine-3-carboxylic acid], the ED50 came out at 3.1 mg/kg in the series with Escherichia coli P-5101 [6], 12.2 mg/kg in series [4] and 2.84 mg/kg in series [5]. The figures for the minimum inhibitory concentration (MIC) (in series [1]; in series [2]; with Escherichia coli P-5101 [3]) were 3.13 µg/mL (≈ 9.99 µM), 0.2 µg/mL (≈ 0.638 µM) and 0.2 µg/mL (≈ 0.638 µM), respectively. In series [7], this compound gave a 50% lethal dose (LD50) at 168 h greater than 2000 mg/kg.
As for `CCn1cc(C(=O)O)c(=O)c2ccc(-c3ccncc3)nc21` [Compound A, 1-ethyl-1,4-dihydro-4-oxo-7-(4-pyridyl)-1,8-naphthyridine-3-carboxylic acid], the ED50 with Escherichia coli P-5101 [6] was 21 mg/kg; in series [4] it was greater than 100 mg/kg; in series [5], 23.7 mg/kg. Further, the results for the minimal inhibitory concentration (MIC) (in series [1]; in series [2]; against Escherichia coli P-5101 [3]) were 12.5 µg/mL (≈ 42.3 µM), 1.56 µg/mL (≈ 5.28 µM) and 0.78 µg/mL (≈ 2.64 µM), respectively.
